We go through 15 compounds from patent publication US12344614B2, “Benzodiazepine derivatives as GABA a GAMMA1 PAM” (Hoffmann-La Roche Inc., priority 2021, dated 2025).

Like-named read-outs stand apart in the source and are kept apart here.

The target in experiment [1] is human GABAA α5β2γ1 receptor (Homo sapiens (Human), UniProt P31644+Q8N1C3). Kind of experiment: Radioligand binding assay, competition for [3H]RO7239181, membranes from HEK293F cells.
The target of experiment [2] is human GABAA α2β2γ1 receptor (Homo sapiens (Human), UniProt P47869+Q8N1C3). The experiment is described as above.
The target of experiment [3] is human GABAA α1β3γ2 receptor (Homo sapiens (Human), UniProt P14867+P18507). Kind of experiment: Radioligand binding assay, competition for [3H]Flumazenil, HEK293F cells. Conditions: for γ2/γ1 Selectivity Ratio: Ki α1β3γ2 (nM)/Ki α2β2γ1 (nM); for LogSel: Log[Ki α1β3γ2 (nM)/Ki α2β2γ1 (nM)].
Setting [4] is: read-out: Ki h-GABAA α2β2γ1, [3H]RO7239181 20-30 nM, HEK293F membranes, 1 hour at 4° C., mean of two determinations.

For orientation: Ki means the equilibrium dissociation constant of an inhibitor or competing ligand from its target. On to `Cc1nnc2n1-c1ccc(C(F)(F)F)c(Cl)c1C(c1nc(O)ccc1F)=N[C@H]2C` [Example 20, 6-[(4S)-7-chloro-1,4-dimethyl-8-(trifluoromethyl)-4H-[1,2,4]triazolo[4,3-a][1,4]benzodiazepin-6-yl]-5-fluoro-pyridin-2-ol], for which the Ki in experiment [1] was 5.02 nM; in experiment [2], 40.1 nM; in experiment [2] (setting [4]), 40.1 nM; in experiment [3] it was 11200 nM. Further, in experiment [3], the “γ2/γ1 Selectivity Ratio” value stood at 279.6. Besides, the LogSel in experiment [3] was 2.45.

Regarding `COC1CN(C(=O)c2nc3n(n2)-c2ccc(C(F)(F)F)c(Cl)c2C(c2cc(O)ccc2F)=NC3)C1` [Example 16, [7-chloro-6-(2-fluoro-5-hydroxy-phenyl)-8-(trifluoromethyl)-4H-[1,2,4]triazolo[1,5-a][1,4]benzodiazepin-2-yl]-(3-methoxyazetidin-1-yl)methanone], the Ki in experiment [1] is 1.04 nM; in experiment [2], 3.6 nM; in experiment [2] (setting [4]) it was 3.6 nM; in experiment [3], 164 nM. In addition, the “γ2/γ1 Selectivity Ratio” value in experiment [3] came to 45.6. Moreover, the LogSel in experiment [3] came to 1.66.

Consider `C[C@@H]1N=C(c2cc(O)ccc2F)c2c(ccc(Cl)c2Cl)-n2ccc(=O)nc21` [Example 5, (5S)-8,9-dichloro-7-(2-fluoro-5-hydroxy-phenyl)-5-methyl-5H-pyrimido[1,2-a][1,4]benzodiazepin-3-one], for which the Ki in experiment [1] stood at 0.39 nM; in experiment [2], 1.4 nM; in experiment [2] (setting [4]), 1.4 nM; in experiment [3], 255 nM. Moreover, the “γ2/γ1 Selectivity Ratio” value in experiment [3] amounted to 182.4. This compound returned a LogSel in experiment [3] of 2.26.

Turning to `O=c1ccn2c(n1)CN=C(c1c(F)ccc(O)c1F)c1c-2ccc(Cl)c1Cl` [Example 14, 8,9-dichloro-7-(2,6-difluoro-3-hydroxy-phenyl)-5H-pyrimido[1,2-a][1,4]benzodiazepin-3-one], the Ki in experiment [1] amounted to 0.85 nM; in experiment [2] it was 4.67 nM; in experiment [2] (setting [4]) it was 4.67 nM; in experiment [3], 74.6 nM. In experiment [3], the “γ2/γ1 Selectivity Ratio” value is reported as 16.0. Moreover, the LogSel in experiment [3] was determined as 1.20.

With `C[C@@H]1N=C(c2nc(O)ccc2F)c2c(ccc(C(F)(F)F)c2Cl)-n2cc(C(=O)N3CCC3)nc21` [Example 30, azetidin-1-yl-[(4S)-7-chloro-6-(3-fluoro-6-hydroxy-2-pyridyl)-4-methyl-8-(trifluoromethyl)-4H-imidazo[1,2-a][1,4]benzodiazepin-2-yl]methanone], the Ki in experiment [1] is 8.77 nM; in experiment [2], 46.3 nM; in experiment [2] (setting [4]) it was 46.3 nM; in experiment [3], 13000 nM. Further, the “γ2/γ1 Selectivity Ratio” value in experiment [3] was found to be 280.8. In addition, the LogSel in experiment [3] was found to be 2.45.

For the compound `COC1CN(C(=O)c2nc3n(n2)-c2ccc(Cl)c(Cl)c2C(c2cc(O)ccc2F)=NC3)C1` [Example 7, [7,8-dichloro-6-(2-fluoro-5-hydroxy-phenyl)-4H-[1,2,4]triazolo[1,5-a][1,4]benzodiazepin-2-yl]-(3-methoxyazetidin-1-yl)methanone], the Ki worked out at 1.4 nM in experiment [1], 2.22 nM in experiment [2], 2.22 nM in experiment [2] (setting [4]) and 34.6 nM in experiment [3]. Besides, in experiment [3], the “γ2/γ1 Selectivity Ratio” value worked out at 15.6. In experiment [3], this compound gave a LogSel of 1.19.

In the case of `O=c1ccn2c(n1)CN=C(c1cc(O)ccc1F)c1c-2ccc(C(F)(F)F)c1Cl` [Example 11, 8-chloro-7-(2-fluoro-5-hydroxy-phenyl)-9-(trifluoromethyl)-5H-pyrimido[1,2-a][1,4]benzodiazepin-3-one], the Ki in experiment [1] was 1.54 nM; in experiment [2] it was 1.88 nM; in experiment [2] (setting [4]) it was 1.88 nM; in experiment [3], 359 nM. Further, the “γ2/γ1 Selectivity Ratio” value in experiment [3] is on record as 191.3. For the same compound, in experiment [3], the LogSel is recorded as 2.28.

As for `Cc1nnc2n1-c1ccc(Cl)c(Cl)c1C(c1cc(O)ccc1F)=N[C@H]2C` [Example 4, 4-fluoro-3-[(4S)-7,8-dichloro-1,4-dimethyl-4H-[1,2,4]triazolo[4,3-a][1,4]benzodiazepin-6-yl]phenol], the Ki in experiment [1] came out at 0.38 nM; in experiment [2], 1.99 nM; in experiment [2] (setting [4]), 1.99 nM; in experiment [3] it was 81.7 nM. The “γ2/γ1 Selectivity Ratio” value in experiment [3] is 41.1. Also, the LogSel in experiment [3] came to 1.61.

Regarding `COC1CN(C(=O)c2ncn3c2CN=C(c2cc(O)ccc2F)c2c-3ccc(C(F)(F)F)c2Cl)C1` [Example 15, [7-chloro-6-(2-fluoro-5-hydroxy-phenyl)-8-(trifluoromethyl)-4H-imidazo[1,5-a][1,4]benzodiazepin-3-yl]-(3-methoxyazetidin-1-yl)methanone], the Ki in experiment [1] amounted to 0.85 nM; in experiment [2] it was 4.18 nM; in experiment [2] (setting [4]) it was 4.18 nM; in experiment [3], 121 nM. Moreover, in experiment [3], the “γ2/γ1 Selectivity Ratio” value is recorded as 28.9. For the same compound, the LogSel in experiment [3] is 1.46.

Regarding `Cc1cn2c(n1)[C@H](C)N=C(c1nc(O)ccc1F)c1c-2ccc(C(F)(F)F)c1Cl` [Example 28, 6-[(4S)-7-chloro-2,4-dimethyl-8-(trifluoromethyl)-4H-imidazo[1,2-a][1,4]benzodiazepin-6-yl]-5-fluoro-pyridin-2-ol], the Ki in experiment [1] came out at 2.07 nM; in experiment [2] it was 5.28 nM; in experiment [2] (setting [4]), 5.28 nM; in experiment [3], 4080 nM. For the same compound, in experiment [3], the “γ2/γ1 Selectivity Ratio” value is given as 772.7. The compound further had a LogSel in experiment [3] of 2.89.

Turning to `CN1C(=O)CN=C(c2cc(O)ccc2F)c2c1ccc(Cl)c2Cl` [Example 1, 6,7-dichloro-5-(2-fluoro-5-hydroxy-phenyl)-1-methyl-3H-1,4-benzodiazepin-2-one], the Ki in experiment [1] came out at 0.34 nM; in experiment [2] it was 2.27 nM; in experiment [2] (setting [4]) it was 2.27 nM; in experiment [3] it was 28.7 nM; in experiment [3] (read-out: Ki h-GABAA α1β3γ2, [3H]Flumazenil 1 nM, HEK293F membranes, 1 hour at 4° C., mean of two determinations) it was 28.7 nM. In addition, the LogSel in experiment [3] amounted to 1.1.

For `Cc1cnc2n1-c1ccc(C(F)(F)F)c(Cl)c1C(c1nc(O)ccc1F)=N[C@H]2C` [Example 23, 6-[(4S)-7-chloro-1,4-dimethyl-8-(trifluoromethyl)-4H-imidazo[1,2-a][1,4]benzodiazepin-6-yl]-5-fluoro-pyridin-2-ol], the Ki turned out to be 3.08 nM in experiment [1], 8.88 nM in experiment [2], 8.88 nM in experiment [2] (setting [4]) and 8010 nM in experiment [3]. The “γ2/γ1 Selectivity Ratio” value in experiment [3] was 902.4. Further, in experiment [3], the LogSel amounted to 2.96.

On to `Cc1nnc2n1-c1ccc(C(F)(F)F)c(Cl)c1C(c1nc(O)ccc1Cl)=N[C@H]2C` [Example 22, 5-chloro-6-[(4S)-7-chloro-1,4-dimethyl-8-(trifluoromethyl)-4H-[1,2,4]triazolo[4,3-a][1,4]benzodiazepin-6-yl]pyridin-2-ol], for which the Ki amounted to 20.9 nM in experiment [1], 13.7 nM in experiment [2], 13.7 nM in experiment [2] (setting [4]) and 9690 nM in experiment [3]. Also, in experiment [3], the “γ2/γ1 Selectivity Ratio” value stood at 704.8. This compound also displayed a LogSel in experiment [3] of 2.85.

On to `Cc1nc2n(n1)-c1ccc(C(F)(F)F)c(Cl)c1C(c1nc(O)ccc1Cl)=N[C@H]2C` [Example 29, 5-chloro-6-[(4S)-7-chloro-2,4-dimethyl-8-(trifluoromethyl)-4H-[1,2,4]triazolo[1,5-a][1,4]benzodiazepin-6-yl]pyridin-2-ol], for which the Ki in experiment [1] was found to be 3.63 nM; in experiment [2], 7.7 nM; in experiment [2] (setting [4]) it was 7.7 nM; in experiment [3], 12000 nM. In addition, in experiment [3], the “γ2/γ1 Selectivity Ratio” value was 1557.5. This compound also displayed a LogSel in experiment [3] of 3.19.

As for `Cc1ccc2c(c1Cl)C(c1cc(O)ccc1F)=NCC(=O)N2C` [Example 2, 6-chloro-5-(2-fluoro-5-hydroxy-phenyl)-1,7-dimethyl-3H-1,4-benzodiazepin-2-one], the Ki in experiment [1] is 0.53 nM; in experiment [2] it was 1.49 nM; in experiment [2] (setting [4]), 1.49 nM; in experiment [3] it was 58.2 nM. For the same compound, the LogSel in experiment [3] came to 1.59.
